Assay results taken from patent US20260217688A1, “INHIBITORS OF JAK2” (Llydaw Therapeutics, Inc., priority 2022, published 2026).

Tests used:
[1] = Proliferation inhibition assay (CellTiter-Glo), Ba/F3 JAK2 wt; format: cell-based; conditions: mouse, Ba/F3 (JAK2 wt) cells
Experimental: (§1) Ba/F3 (JAK2 wt) (ABM, T3076) cells and Ba/F3 (JAK2 V617F) (WuXi AppTec) cells were grown in RPMI-1640 (Gibco, cat. number 21870) supplemented with 10% FBS (Hyclone Laboratories Inc, Cat #SV30160.03), 1× Antibiotic-antimycotic (Gibco, Cat #15240-062), 2× Sodium pyruvate (Paneco, cat #F023), 2× Essential amino acids (Paneco, cat #F115/100), 1× Non-Essential amino acids (Paneco, cat #F116) at 37° C. in 5% CO2 atmosphere.
(§2) For the proliferation inhibition assay Ba/F3 (JAK2 wt) and Ba/F3 (JAK2 V617F) cells were seeded into a CellBIND® 384-well Flat Clear Bottom Black Polystyrene Microplates (Corning, USA, Cat #3770) at a density of 4000 cells per well in complete culture medium with or without 10 ng/ml rmIL-3 (RD systems, USA, Cat #403-ML-025) using Biomek FX/NX (384) liquid handler, 45 μl of cell suspension in complete culture medium per well. 500× compound's stocks in DMSO (Sigma Cat #D2650) were prepared in compounds plate (Diamond Well Plate, Axigen, Cat #P-384-120 SQ-C-S) applying Biomek 2000. 1 μl of 500× compounds stock was added to 49 μl of complete culture medium into Dilution plate (Diamond Well Plate, Axigen, Cat #P-384-120 SQ-C-S), mixed and then 5 μl of 10× compounds solution was transferred to cells using Biomek FX/NX (384) liquid handler. The centrifugation at 100 g for 1 min at Eppendorf 5810 followed. Final DMSO concentration in assay was 0.2%. All treatments were performed in technical and biological duplicates. Treated cells were incubated for 72 h at 37° C. with 5% CO2.
(§3) After 3 days of incubation, CellTiter-Glo Luminescent Cell Viability Assay (Promega) was performed. 10 μl of CellTiter-Glo (Promega, CAT #G7572) was added to the cells using Biomek FX/NX (384) liquid handler. The assay plate was centrifuged at 100 g for 1 min and luminescence signal was measured using Microplate Reader (CLARIOStar).

Ba/F3 (JAK2 V617F) cells = experiment: Proliferation inhibition assay (CellTiter-Glo), Ba/F3 JAK2 V617F; format: cell-based; conditions: Mus musculus, BaF3; without IL3, 72 h; read-out: Ba/F3 JAK2 V617F, CC50 3 days
Experimental: as §1, §2, §3

[2] = as above; format: cell-based; conditions: mouse, Ba/F3 (JAK2 V617F) cells; with 10 ng/ml rmIL-3, 72 h; read-out: Ba/F3 JAK2 V617F + IL3, CC50 3 days
Experimental: as §1, §2, §3

JAK2 JH2 = molecular target: T1, JAK2 JH2 (Homo sapiens, UniProt O60674); experiment: JAK2 JH2 TR-FRET Assay; format: binding; conditions: JAK2 JH2 1 nM, Tracer ZE84-0003 10 nM
T1 construct: Enzyme: JAK2 JH2, His-Avi-Tag, Biotin-Labeled (BPS Bioscience, Cat #79074) 1 nM; His; purchased BPS Bioscience 79074
Experimental: Assay Buffer 1×: • 20 mM HEPES pH 7.2-7.4; • 10 mM MgCl2; • 0.015% Brij-35; • 2 mM DTT; • 0.05 mg/ml BSA.
Final assay concentrations: • DMSO: 0.25%; • Streptavidin Tb-cryptate (Cisbio, Cat #610SATLB) 0.2 nM; • Enzyme: JAK2 JH2, His-Avi-Tag, Biotin-Labeled (BPS Bioscience, Cat #79074) 1 nM; • Probe: Tracer ZE84-0003 (ChemRar) 10 nM.
Materials: • Reaction plate: ProxiPlate-384 Plus White Plate (PerkinElmer); • Dilution plate: Diamond Well Plate (Axygen, Cat #P-384-120 SQ-C-S); • Compounds plate: Diamond Well Plate (Axygen, Cat #P-384-120 SQ-C-S).
Assay protocol: • 1. Prepare 400× solutions of compounds in DMSO into Compounds plate; • 2. Prepare Dilution plate: add 39 μL of 1× Assay buffer per well of Dilution plate; • 3. Prepare 2×Tb-cryptate mix in 1× Assay buffer. Add 10 μL of 2×Tb-cryptate mix to K-(Tb-cryptate and Probe without Enzyme) wells and blank (Tb-cryptate without Probe and Enzyme) wells; • 4. Add JAK2 JH2 into the rest of 2×Tb-cryptate mix to make 2×JAK2 JH2+Tb-cryptate mix. Add 10 μL per well into Reaction plate; • 5. Centrifuge plate at 200 g for 1 min; • 6. Dilute 1 μL of 400× compounds in 39 μL 1× Assay buffer in Dilution plate; • 7. Add 2 μL of 10× compounds from Dilution plate to Reaction plate with 10 μL of JAK2 JH2+Tb-cryptate mix; • 8. Centrifuge plate at 200 g for 1 min; • 9. Pre-incubate Reaction plate with compounds 15 min; • 10. Prepare 2.5× Tracer mix; • 11. Add 8 μL of 2.5× Tracer mix into appropriate wells of Reaction plate; • 12. Centrifuge plate at 800 g for 3 min; • 13. Incubate at rt for 15 min; • 14. Measure Fluorescence using Microplate Reader (Ex: TR, Em1/Em2: 482/520). The results of this assay are shown in the Table B. The values of EC50 shown as a letters A-D, where: A≤0.01 μM; 0.01 μM<B≤0.05 μM; 0.05 μM<C≤0.1 μM; D>0.1.

[3] = with 10 ng/ml rmIL-3, 72 h, read-out: Ba/F3 JAK2 wt + IL3, CC50 3 days
[4] = without IL3, 72 h, read-out: Ba/F3 JAK2 wt, CC50 3 days

T1 sequence (O60674 545-809 limits assumed): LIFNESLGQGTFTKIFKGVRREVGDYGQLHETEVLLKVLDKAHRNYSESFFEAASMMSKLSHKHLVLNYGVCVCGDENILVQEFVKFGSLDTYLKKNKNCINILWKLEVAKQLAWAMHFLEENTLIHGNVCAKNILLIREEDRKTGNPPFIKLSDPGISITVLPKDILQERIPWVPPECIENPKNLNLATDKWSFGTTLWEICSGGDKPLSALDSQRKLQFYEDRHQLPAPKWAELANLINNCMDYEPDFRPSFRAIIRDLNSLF

| Structure (SMILES) | CC50 at 72 h [1, 3] [µM] | CC50 at 72 h [1, 4] [µM] | CC50 (Ba/F3 (JAK2 V617F) cells) [µM] | CC50 at 72 h [2] [µM] | EC50 (JAK2 JH2) [µM] |
| --- | --- | --- | --- | --- | --- |
| COc1c(Nc2nc(Nc3cnn(-c4ccccc4)c3)ncc2C(N)=O)cccc1-c1ncn(C)n1 [Compound 6, 4-((2-Methoxy-3-(1-methyl-1H-1,2,4-triazol-3-yl)phenyl)amino)-2-((1-phenyl-1H-pyrazol-4-yl)amino)pyrimidine-5-carboxamide] | > 10 | > 10 | ≤ 0.5 | ≤ 0.5 | 0.01 to 0.05 |
| COc1c(Nc2nc(Nc3cnn(C4CCNCC4)c3)ncc2C(N)=O)cccc1-c1ncn(C)n1 [Compound 7, 4-((2-Methoxy-3-(1-methyl-1H-1,2,4-triazol-3-yl)phenyl)amino)-2-((1-(piperidin-4-yl)-1H-pyrazol-4-yl)amino)pyrimidine-5-carboxamide 2,2,2-trifluoroacetate] | > 10 | > 10 | 1 to 5 | > 10 | 0.01 to 0.05 |
| COc1c(Nc2nc(Nc3cnn(C4CCNCC4)c3)ncc2C(N)=O)cccc1-c1nc2ccccc2o1 [Compound 8, 4-[3-(1,3-benzoxazol-2-yl)-2-methoxy-anilino]-2-[[1-(4-piperidyl)pyrazol-4-yl]amino]pyrimidine-5-carboxamide] | > 10 | > 10 | 1 to 5 | 5 to 10 | ≤ 0.01 |
| COc1c(Nc2nc(Nc3cnn(C4CCCCC4)c3)ncc2C(N)=O)cccc1-c1ncn(C)n1 [Compound 11, 2-[(1-cyclohexylpyrazol-4-yl)amino]-4-[2-methoxy-3-(1-methyl-1,2,4-triazol-3-yl)anilino]pyrimidine-5-carboxamide] | 1 to 5 | 1 to 5 | ≤ 0.5 | ≤ 0.5 | ≤ 0.01 |
| COc1c(Nc2nc(Nc3cnn(C)c3)ncc2C(N)=O)cccc1-c1nc2ccccc2o1 [Compound 12, 4-[3-(1,3-benzoxazol-2-yl)-2-methoxy-anilino]-2-[(1-methylpyrazol-4-yl)amino]pyrimidine-5-carboxamide] | > 10 | > 10 | ≤ 0.5 | 1 to 5 | 0.01 to 0.05 |
| COc1c(Nc2nc(Nc3cnn(C4CCOCC4)c3)ncc2C(N)=O)cccc1-c1ncn(C)n1 [Compound 14, 4-[2-methoxy-3-(1-methyl-1,2,4-triazol-3-yl)anilino]-2-[(1-tetrahydropyran-4-ylpyrazol-4-yl)amino]pyrimidine-5-carboxamide] | > 10 | > 10 | ≤ 0.5 | 5 to 10 | ≤ 0.01 |
| COc1c(Nc2nc(Nc3cnn(C(C)C)c3)ncc2C(N)=O)cccc1-c1nc2ccccc2o1 [Compound 16, 4-[3-(1,3-benzoxazol-2-yl)-2-methoxy-anilino]-2-[(1-isopropylpyrazol-4-yl)amino]pyrimidine-5-carboxamide] | 5 to 10 | > 10 | ≤ 0.5 | 0.5 to 1 | 0.01 to 0.05 |
| COc1c(Nc2nc(Nc3c(C)nn(C)c3C)ncc2C(N)=O)cccc1-c1ncn(C)n1 [Compound 17, 4-[2-methoxy-3-(1-methyl-1,2,4-triazol-3-yl)anilino]-2-[(1,3,5-trimethylpyrazol-4-yl)amino]pyrimidine-5-carboxamide] | > 10 | > 10 | > 10 | > 10 | > 0.1 |
| CCn1nc(C)c(Nc2ncc(C(N)=O)c(Nc3cccc(-c4ncn(C)n4)c3OC)n2)c1C [Compound 18, 2-[(1-ethyl-3,5-dimethyl-pyrazol-4-yl)amino]-4-[2-methoxy-3-(1-methyl-1,2,4-triazol-3-yl)anilino]pyrimidine-5-carboxamide] | > 10 | > 10 | 5 to 10 | > 10 | > 0.1 |
| COc1c(Nc2nc(Nc3cnn(CC4CCCCC4)c3)ncc2C(N)=O)cccc1-c1ncn(C)n1 [Compound 22, 2-[[1-(cyclohexylmethyl)pyrazol-4-yl]amino]-4-[2-methoxy-3-(1-methyl-1,2,4-triazol-3-yl)anilino]pyrimidine-5-carboxamide] | 5 to 10 | 5 to 10 | ≤ 0.5 | 1 to 5 | 0.01 to 0.05 |
| COc1c(Nc2nc(Nc3cnn(CCC(C)C)c3)ncc2C(N)=O)cccc1-c1ncn(C)n1 [Compound 24, 2-[(1-isopentylpyrazol-4-yl)amino]-4-[2-methoxy-3-(1-methyl-1,2,4-triazol-3-yl)anilino]pyrimidine-5-carboxamide] | 5 to 10 | > 10 | ≤ 0.5 | 0.5 to 1 | 0.01 to 0.05 |
| CCCCCCn1cc(Nc2ncc(C(N)=O)c(Nc3cccc(-c4ncn(C)n4)c3OC)n2)cn1 [Compound 26, 2-[(1-hexylpyrazol-4-yl)amino]-4-[2-methoxy-3-(1-methyl-1,2,4-triazol-3-yl)anilino]pyrimidine-5-carboxamide] | 5 to 10 | 5 to 10 | ≤ 0.5 | 0.5 to 1 | 0.01 to 0.05 |
| COc1c(Nc2nc(Nc3cnn(CCCN(C)C)c3)ncc2C(N)=O)cccc1-c1ncn(C)n1 [Compound 28, 2-[[1-[3-(dimethylamino)propyl]pyrazol-4-yl]amino]-4-[2-methoxy-3-(1-methyl-1,2,4-triazol-3-yl)anilino]pyrimidine-5-carboxamide] | > 10 | > 10 | 5 to 10 | > 10 | > 0.1 |
| COc1c(Nc2nc(Nc3cnn(CCN(CC(C)C)CC(C)C)c3)ncc2C(N)=O)cccc1-c1ncn(C)n1 [Compound 29, 2-(1-(2-(Diisobutylamino)ethyl)-1H-pyrazol-4-ylamino)-4-(2-methoxy-3-(1-methyl-1H-1,2,4-triazol-3-yl)phenylamino)pyrimidine-5-carboxamide] | 5 to 10 | 1 to 5 | ≤ 0.5 | 1 to 5 | > 0.1 |
| COc1c(Nc2nc(Nc3cnn(C45CC6CC(CC(C6)C4)C5)c3)ncc2C(N)=O)cccc1-c1ncn(C)n1 [Compound 30, 2-((1-(1-Adamantyl)-1H-pyrazol-4-yl)amino)-4-((2-methoxy-3-(1-methyl-1H-1,2,4-triazol-3-yl)phenyl)amino)pyrimidine-5-carboxamide] | 1 to 5 | 1 to 5 | ≤ 0.5 | 0.5 to 1 | 0.01 to 0.05 |
